In patent US5885814A, “Vaccine containing a serine protease” (priority 1993, dated 1999):
Where two headings read alike, the source gives them in different places. Square brackets hold non-standard residues; d marks the D form. Peptide text beside a SMILES is read from it. * marks the point of attachment. Sta = CC(C)C[C@H](N)[C@@H](O)CC(=O)O; Isovaleryl = CC(C)CC(=O)*

How the values were obtained:
[1] = tested on: DPP-like protease from F. hepatica E/S products; format: biochemical, Fasciola hepatica
Protocol: The assay mixture contained 200 μl of 20 μM substrate, 100 μl of enzyme solution and 900 μl of 50 mM Hepes, pH 6.8. The reaction was allowed to proceed at 37° C. and stopped by the addition of 200 μl of 1.7M acetic acid. The liberated AMC was measured in a fluorometer with excitation and emission wavelengths of 370 nm and 440 nm, respectively.
The effect of various metal ions on the hydrolytic activity of the enzyme was examined using both gly-pro-AMC and lys-ala-AMC as substrates in assays as described above.

[2] = tested on: Mammalian DPP2; settings: J. Biol. Chem. 263 (1988), 6613-6618; cited from earlier work
[3] = tested on: Mammalian DPP4; settings: J. Biol. Chem. 263 (1988), 6613-6618; cited from earlier work
[4] = substance 0.5 mM, substrate Gly-Pro-AMC
[5] = substance 0.5 mM, substrate Lys-Ala-AMC
[6] = substance 1 mM, substrate Gly-Pro-AMC
[7] = substance 1 mM, substrate Lys-Ala-AMC
[8] = gly-pro-AMC and lys-ala-AMC as substrates
[9] = substance 5 mM, substrate Gly-Pro-AMC
[10] = concentration of 5 mM, gly-pro-AMC and lys-ala-AMC as substrates
[11] = substance 5 mM, substrate Lys-Ala-AMC
[12] = substance 5 μg/ml, substrate Gly-Pro-AMC
[13] = substance 5 μg/ml, substrate Lys-Ala-AMC
[14] = substance 0.02 mM, substrate Gly-Pro-AMC
[15] = substance 0.02 mM, substrate Lys-Ala-AMC
[16] = substance 0.1 mM, substrate Gly-Pro-AMC
[17] = substance 0.1 mM, substrate Lys-Ala-AMC

Row | Compound | Activity remaining (%) Gly-Pro [1, 4] | Activity remaining (%) Lys-Ala [1, 5] | Activity remaining (%) Gly-Pro [1, 6] | Activity remaining (%) Lys-Ala [1, 7] | effect on enzyme activity (in words) [1, 8] | Activity remaining (%) Gly-Pro [1, 9] | further results
1 | O[C@H](CS)[C@H](O)CS (racemic) [DTT, dithiothreitol] | 77% | 61% | 90% | 62% |  |  | activation of the enzyme by thiol activating agents [1]: no activation
2 | OCCS [2-Mercaptoethanol] |  |  | 87% | 75% |  |  | activation of the enzyme by thiol activating agents [1]: no activation
3 | N=C(N)c1ccccc1 [Benzamidine] |  |  | 77% |  | inhibits the activity | 35% | Activity remaining (%) Gly-Pro ([1]; substance 10 mM, substrate Gly-Pro-AMC): 23%
4 | [Ca+2] [Ca, calcium] | 133% | 96% | 57% | 62% | little effect on enzyme activity |  | 
5 | [Cd] [Cd, cadmium] |  |  | 26% | 19% |  | 6% | inhibition of enzyme activity [1, 10]: > 90%; Activity remaining (%) Lys-Ala [1, 11]: 5%
6 | [Co] [Co, cobalt] |  |  | 20% | 28% |  | 4% | inhibition of enzyme activity [1, 10]: > 90%; Activity remaining (%) Lys-Ala [1, 11]: 6%
7 | N[C@@H](CS)C(=O)O [Cysteine, cysteine] | 104% | 112% | 104% | 105% |  |  | activation of the enzyme by thiol activating agents [1]: no activation
8 | O=C(O)CN(CCN(CC(=O)O)CC(=O)O)CC(=O)O [EDTA] |  |  |  |  |  |  | effect on enzyme activity (in words) [1]: not inhibited; Activity remaining (%) Gly-Pro ([1]; pH 6.8, 2000 µM): 108%; Activity remaining (%) Lys-Ala ([1]; pH 6.8, 2000 µM): 121%
9 | [Fe] [Fe, iron] |  |  | 6% | 5% |  | 2% | inhibition of enzyme activity [1, 10]: > 90%; Activity remaining (%) Lys-Ala [1, 11]: 2%
10 | [Mg+2] [Mg, magnesium] | 116% | 105% | 78% | 76% | little effect on enzyme activity |  | 
11 | [Mn+2] [Mn, manganese] | 102% | 104% | 66% | 66% | little effect on enzyme activity |  | 
12 | O=S(=O)(F)Cc1ccccc1 [PMSF, phenylmethyl sulfonyl fluoride] |  |  |  |  | inhibited |  | Activity remaining (%) Gly-Pro ([1]; substance 2 mM, substrate Gly-Pro-AMC): 2%; Activity remaining (%) Lys-Ala ([1]; substance 2 mM, substrate Lys-Ala-AMC): 3%
13 | [Pb] [Pb, lead] |  |  | 109% | 103% |  | 70% | Activity remaining (%) Lys-Ala [1, 11]: 82%
14 | CC(C)CC(=O)N[C@H](C(=O)N[C@H](C(=O)N[C@@H](CC(C)C)[C@@H](O)CC(=O)N[C@@H](C)C(=O)N[C@@H](CC(C)C)[C@@H](O)CC(=O)O)C(C)C)C(C)C [Pepstatin] (Isovaleryl-VV[Sta]A[Sta]-OH) |  |  |  |  | not inhibited |  | Activity remaining (%) Gly-Pro [1, 12]: 108%; Activity remaining (%) Lys-Ala [1, 13]: 92%
15 | COc1ccc(C[C@H](N)C(=O)N[C@H]2[C@@H](O)[C@H](n3cnc4c(N(C)C)ncnc43)O[C@@H]2CO)cc1 [Puromycin, puromycin] |  |  |  |  | neither showed any inhibitory effect |  | inhibition of mammalian DPP2 [2]: will inhibit DPP2 only; Activity remaining (%) Gly-Pro [1, 14]: 100%; Activity remaining (%) Lys-Ala [1, 15]: 100%; Activity remaining (%) Gly-Pro [1, 16]: 100%; Activity remaining (%) Lys-Ala [1, 17]: 100%
16 | [Zn] [Zn, zinc] | 80% | 37% | 3% | 14% |  |  | inhibition of enzyme activity ([1]; 1 mM concentration, gly-pro-AMC and lys-ala-AMC as substrates): > 85%
17 | aprotinin |  |  |  |  | not inhibited |  | Activity remaining (%) Gly-Pro [1, 12]: 109%; Activity remaining (%) Lys-Ala [1, 13]: 116%
18 | bacitracin |  |  |  |  | neither showed any inhibitory effect |  | inhibition of mammalian DPP4 [3]: inhibits DPP4 only; Activity remaining (%) Gly-Pro [1, 14]: 100%; Activity remaining (%) Lys-Ala [1, 15]: 100%; Activity remaining (%) Gly-Pro [1, 16]: 100%; Activity remaining (%) Lys-Ala [1, 17]: 100%
19 | mercury [Hg] |  |  | 7% | 4% |  | 5% | inhibition of enzyme activity [1, 10]: > 90%; Activity remaining (%) Lys-Ala [1, 11]: 2%
